Patent publication US9616006B2, “Methods and compositions for treating dermatological diseases and conditions” (priority 2007, dated 2017)

What was measured:
PGE2 [1] = assay: TPA-induced PGE2 production in keratinocytes (ELISA); type: cell-based, human; conditions: 100 uM
IL-6 [2] = assay: TPA-induced IL-6 production in keratinocytes (ELISA); type: cell-based, human; conditions: 100 uM
IL-8 [3] = assay: TPA-induced IL-8 production in keratinocytes (ELISA); type: cell-based, human; conditions: 100 uM
TNF-α [4] = assay: TPA-induced TNF-α production in keratinocytes (ELISA); type: cell-based, human
Method: (§1) In one study, various concentrations of DHE were added to culture medium and these media were placed on human fibroblast cell cultures (results shown in FIG. 1). Cells were either not induced or induced with UVB radiation to stimulate cytokine/PGE-2 production. At 24 hours after treatment, the cell culture medium was removed and assayed by ELISA methods for the expression of PGE-2, various cytokines and chemokines.
(§2) When similar experiments were carried out with human keratinocytes, DHE was again found to markedly suppress the UVR induction of PGE-2, with a concentration of 50 uM inhibiting the production of PGE-2 by over 60% (results shown in FIG. 2). […] Further, since PGE-2 is known to be a principal factor in the development of actinic keratosis and skin cancer, DHE can also be used in treating these conditions.
Inflammatory mediators produced in the skin contribute to the development and propagation of such diseases as rosacea, psoriasis and atopic dermatitis. While many inflammatory mediators are involved in these diseases, TNF-α is known to be a major cytokine involved in psoriasis. For atopic dermatitis, TNF-α, IL-8, and MCP-1 are important mediators of inflammation in these diseases. DHE is effective in suppressing the TPA-induced (TPA is tetradecanolyl phorbol ester) production of TNF-α by approximately 50% at a 100 micromolar concentration (results shown in FIG. 3).
(§3) DHE and IE both have inhibitory effects on production of the inflammatory mediators in keratinocytes.

PGE2 [5] = assay: UV-induced PGE2 production in keratinocytes (ELISA); type: cell-based, human
Method: as §1, §2, §3

IL-6 [6] = assay: UV-induced IL-6 production in keratinocytes (ELISA); type: cell-based, human; conditions: 100 uM
Method: as §1, §2, §3

IL-8 [7] = assay: UV-induced IL-8 production in keratinocytes (ELISA); type: cell-based, human; conditions: 100 uM
Method: as §1, §2, §3

TNF-α [8] = assay: UV-induced TNF-α production in keratinocytes (ELISA); type: cell-based, human; conditions: 100 uM
Method: as §1, §2, §3

PGE-2 [9] = assay: IL-1-induced PGE-2 production in fibroblasts (ELISA); type: cell-based, human; conditions: Fibroblasts (IL-1); 100 uM
Method: as §1, with “Cells were either not induced or induced with UVB radiation to stimulate cytokine/PGE-2 production.” left out
(§4) DHE and IE both have inhibitory effects on the production of the inflammatory mediators in fibroblasts.

IL-6 [10] = assay: IL-1-induced IL-6 production in fibroblasts (ELISA); type: cell-based, human; conditions: Fibroblasts (IL-1); 100 uM
Method: as §1, with “Cells were either not induced or induced with UVB radiation to stimulate cytokine/PGE-2 production.” left out
as §4

IL-8 [11] = assay: IL-1-induced IL-8 production in fibroblasts (ELISA); type: cell-based, human; conditions: Fibroblasts (IL-1); 100 uM
PGE-2 [12] = assay: UV-induced PGE-2 production in fibroblasts (ELISA); type: cell-based, human
Method: as §1
As is shown in FIG. 1, UV radiation (UVR) treatment of fibroblasts results in a 6 fold increase in PGE-2.
as §4

IL-6 [13] = assay: UV-induced IL-6 production in fibroblasts (ELISA); type: cell-based, human; conditions: 100 uM
Method: as §1, §4

IL-8 [14] = assay: UV-induced IL-8 production in fibroblasts (ELISA); type: cell-based, human; conditions: 100 uM
Method: as §1, §4

MCP-1 [15] = assay: LPS-induced MCP-1 production in monocytes; type: cell-based
Excerpt: (§5) DHE and IE both have inhibitory effects on the production of the inflammatory mediators in monocytes.

IL-12 [16] = assay: LPS-induced IL-12 production in monocytes; type: cell-based; conditions: 100 uM
Excerpt: as §5

TNF-α [17] = assay: LPS-induced TNF-α production in monocytes; type: cell-based
Excerpt: as §5

IL-8 [18] = assay: LPS-induced IL-8 production in monocytes; type: cell-based
Excerpt: as §5

MCP-1 [19] = assay: TNF-α-induced MCP-1 production in monocytes; type: cell-based; conditions: 100 uM
Excerpt: as §5

IL-8 [20] = assay: TNF-α-induced IL-8 production in monocytes; type: cell-based; conditions: 100 uM
Excerpt: as §5

IL-12 [21] = assay: TNF-α-induced IL-12 production in monocytes; type: cell-based; conditions: 100 uM
Excerpt: as §5

collagen 1 mRNA = assay: Collagen mRNA in fibroblasts by RT-PCR; type: cell-based, human; conditions: fibroblast cell cultures treated 72 hours
Excerpt: (§6) The presently claimed and disclosed inventive concept(s) further contemplates use of various DHE, IE and EV compositions and salts, esters, ethers, and derivatives thereof to mitigate the effects of aging on the skin. For all aging studies, normal human fibroblast cell cultures were used. These cells normally produce collagen, elastin and hyaluronic acid. As the skin ages, the fibroblasts in the dermis lose their ability to produce these three key components of skin, and the skin consequently loses elasticity, thickness and smooth texture. In addition, as fibroblasts age, they increase the expression of certain enzymes that destroy collagen and elastin. There are about 13 of these enzymes, collectively referred to as MMPs (matrix metalloproteinases). One of the principal MMPs, MMP-1, is responsible for collagen degradation. […] Fibroblast cell cultures were treated with either IE, DHE or EV for 72 hours at which time the amount of collagen mRNA present in the cells was determined.

elastin mRNA = assay: Elastin mRNA in human dermal fibroblasts by RT-PCR; type: cell-based; conditions: 72 hours
Excerpt: as §6, with “In addition, as fibroblasts age, they increase the expression of certain enzymes that destroy collagen and elastin.” left out, “The image is from an electrophoresis gel of DNA amplified by PCR from fibroblast mRNA. This gel was analyzed and” for “Fibroblast cell cultures were treated with either IE, DHE or EV for 72 hours at which time”, “density” for “amount”, “each band quantified by image analysis software.” for “collagen mRNA present in the cells was determined.”

[22] = tested on: HAS-2 (Hyaluronic acid synthase-2); assay: HAS-2 mRNA in fibroblasts by RT-PCR; type: cell-based, human; conditions: 72 hours
Excerpt: (§7) The presently claimed and disclosed inventive concept(s) further contemplates use of various DHE, IE and EV compositions and salts, esters, ethers, and derivatives thereof to mitigate the effects of aging on the skin. For all aging studies, normal human fibroblast cell cultures were used. These cells normally produce collagen, elastin and hyaluronic acid. As the skin ages, the fibroblasts in the dermis lose their ability to produce these three key components of skin, and the skin consequently loses elasticity, thickness and smooth texture. In addition, as fibroblasts age, they increase the expression of certain enzymes that destroy collagen and elastin. There are about 13 of these enzymes, collectively referred to as MMPs (matrix metalloproteinases). One of the principal MMPs, MMP-1, is responsible for collagen degradation. For experiments herein to determine the effects of DHE, IE and EV on collagen, elastin and hyaluronic acid, fibroblasts were treated with the compounds for 72 hours, mRNA was then isolated, and analyzed for abundance by RT-PCR (Reverse transcriptase-Polymerase Chain Reaction).
DHE, IE and EV, are also shown herein to stimulate mRNA for HAS-2. HAS-2 (Hyaluronic acid synthase-2) is the enzyme that manufactures hyaluronic acid (HA) in the skin. HA is a glycosaminoglycan important for maintaining moisture and suppleness in the skin. […] As the skin ages, the production of HA decreases and this causes the skin to sag and become thin.

TIMP-1 = TIMP-1 mRNA in fibroblasts by PCR; type: cell-based, human
Excerpt: as §7
Fibroblasts in the skin not only produce enzymes (MMPs) that destroy the skin matrix but they also produce proteins (Tissue Inhibitors of Metalloproteinases, i.e., TIMPS) that inhibit these enzymes. There are several TIMPs, but one that is most important for inhibiting MMPs is TIMP-1. […] Shown in FIG. 11 is PCR data showing the up-regulation of TIMP-1 mRNA by these compounds.

[23] = tested on: MMP-1, MMP-3, MMP-8, MMP-9 MMP-10 and MMP-13; assay: MMP protein abundance in human dermal fibroblasts (protein array blotting); type: cell-based
Excerpt: As mentioned above, as fibroblasts age they increase their production of MMP enzymes that destroy collagen and elastin, particularly collagenase, MMP-1. We utilized a protein array blotting technique to determine the effect of DHE, IE and EV on the protein abundance of these enzymes. As shown below, EV is able to reduce the level of several MMPs in human dermal fibroblasts, including MMP-1, MMP-3, MMP-8, MMP-9 MMP-10 and MMP-13 (FIG. 12). This remarkable effect makes this compound an ideal addition to an anti-aging product since MMP levels in aging skin are quite high.

[24] = type: physicochemical; conditions: water-oil emulsion
Method: This surprising and unexpected finding meant that it was necessary to identify a carrier/vehicle system that would accommodate EV in a soluble form and at the same time maintain its chemical stability (defined herein as at least 95% of the ethyl vanillin remaining chemically intact for at least 3 months). In one formulation contemplated herein, EV is dissolved in caprylic/capric triglyceride or other fatty acid triglyceride and then mixed into a silicone fluid wherein the silicone is the primary (greatest percentage) component of the formulation. The cosmetic silicone fluid used in this embodiment accepts the caprylic/capric triglyceride and allows the EV to remain in solution. […] Therefore, the presently claimed and disclosed inventive concept(s) contemplates formulations of EV in non-aqueous solutions, particularly comprising at least 20% to 25% to 30% to 35% to 40% to 45% to 50%, or up to 60%, 70%, 80% or 90% silicone thereby explicitly excluding water-in-oil, or oil-in-water, emulsions. Additionally, besides caprylic capric triglyceride, EV can be solubilized in jojoba oil, sunflower oil or squalane or any other solubilizer which is accepted by the silicones. […]

[25] = tested on: human melanocyte cultures; assay: Pigment in human melanocyte cultures; type: cell-based; conditions: treated for 9 days
tyrosinase [26] = assay: DOPA oxidase assay of cell extracts from treated human melanocytes; type: cell-based; conditions: extracts of human melanocytes treated for 9 days
Method: Cell lysates were prepared from human melanocytes. The amount of tyrosinase in these cell lysates was determined by DOPA oxidase assay.
(§8) FIGS. 14-17 show the skin-lightening effects of topically-applied formulations of isoeugenol and its ester isoeugenol acetate (a.k.a. isoeugenyl acetate) in the treatment of hyperpigmented areas in the skin, wherein a reduction of melanin pigment in the skin is caused by the topical application of the formulations. In addition to blocking a post-tyrosinase step in melanin synthesis, IE and IE acetate can inhibit the expression of the tyrosinase protein in human melanocytes. […] If the cell extracts contain tyrosinase when an aliquot of extract is placed in a tube containing L-DOPA (a tyrosinase substrate) in buffer, the enzyme will convert the DOPA to melanin. The melanin will appear brownish-black in the assay tube. If IE or IE-acetate has inhibited tyrosinase synthesis in melanocytes, then the extracts from these cells will contain no enzyme and will not be able to produce melanin from DOPA in the assay tube. […] In this assay, cell extracts from human melanocytes either left untreated or treated with 200 micromolar of either IE or isoeugenol acetate for 9 days are run on SDS polyacrylamide electrophoresis gels to separate tyrosinase from other proteins. The tyrosinase in the gel is then blotted to a membrane and the tyrosinase detected by staining with a specific anti-tyrosinase antibody. The antibody-bound tyrosinase is then visualized by chemiluminescence.

tyrosinase [27] = assay: Western immunoblot of tyrosinase abundance in human melanocyte extracts; type: cell-based
Excerpt: as §8

[28] = monocytes, LPS-induced (FIG. 4)

## CCCc1ccc(O)c(OC)c1 [DHE, dihydroeugenol]
PGE2 [1]
  Percent Inhibition of PGE2: 77%
IL-6 [2]
  Percent Inhibition of IL-6: 30%
IL-8 [3]
  Percent Inhibition of IL-8: 45%
TNF-α [4]; Keratinocytes (TPA), 100 uM
  Percent Inhibition of TNF-α: 12%
TNF-α [4]; keratinocytes (FIG. 3), 100 micromolar
  suppression of TPA-induced production of TNF-α: approximately 50%
PGE2 [5]; Keratinocytes (UV), 100 uM
  Percent Inhibition of PGE2: 68%
PGE2 [5]; human keratinocytes, 50 uM
  inhibition of UVR-induced production of PGE-2: over 60%
IL-6 [6]
  Percent Inhibition of IL-6: 30%
IL-8 [7]
  Percent Inhibition of IL-8: 40%
TNF-α [8]
  Percent Inhibition of TNF-α: 31%
PGE-2 [9]
  Percent Inhibition of PGE-2: 86%
IL-6 [10]
  Percent Inhibition of IL-6: 47%
IL-8 [11]
  Percent Inhibition of IL-8: 46%
PGE-2 [12]; Fibroblasts (UV), 100 uM
  Percent Inhibition of PGE-2: 67%
PGE-2 [12]; human fibroblasts, 10 micromolar in culture media after irradiation, 24 hours
  UVR induction of PGE-2: completely blocked
IL-6 [13]
  Percent Inhibition of IL-6: 49%
IL-8 [14]
  Percent Inhibition of IL-8: 11%
MCP-1 [15]; Monocytes (LPS), 100 uM
  Percent Inhibition of MCP-1: 60%
MCP-1 [15]; [28]
  production of the chemokine MCP-1: can inhibit the production
IL-12 [16]
  Percent Inhibition of IL-12: 66%
TNF-α [17]; Monocytes (LPS), 100 uM
  Percent Inhibition of TNF-α: 78%
TNF-α [17]; [28]
  production of the cytokine TNF-α: can inhibit the production
IL-8 [18]; Monocytes (LPS), 100 uM
  Percent Inhibition of IL-8: 70%
IL-8 [18]; [28]
  production of the chemokine IL-8: can inhibit the production
MCP-1 [19]
  Percent Inhibition of MCP-1: 46%
IL-8 [20]
  Percent Inhibition of IL-8: 72%
IL-12 [21]
  Percent Inhibition of IL-12: 98%
Collagen 1 mRNA
  collagen production (collagen mRNA): stimulation
Elastin mRNA
  elastin levels (elastin mRNA): increase
[22]
  mRNA for HAS-2: stimulate
TIMP-1
  production of TIMP-1 (TIMP-1 mRNA): significantly stimulate

## CCOc1cc(C=O)ccc1O [EV, ethyl vanillin]
Collagen 1 mRNA
  collagen production (collagen mRNA): stimulation
Elastin mRNA
  elastin levels (elastin mRNA): increase
[22]
  mRNA for HAS-2: stimulate
TIMP-1
  production of TIMP-1 (TIMP-1 mRNA): significantly stimulate
[23]
  level of several MMPs (protein abundance): reduce
[24]
  time within which EV significantly decomposes: 24 to 48 h

## CC=Cc1ccc(OC(C)=O)c(OC)c1 [isoeugenol acetate]
[25]
  pigment in human melanocyte cultures: loss of pigment
Tyrosinase [26]; listed as IE-acetate
  tyrosinase activity / melanin made from L-DOPA by cell extracts: very little melanin was made
Tyrosinase [26]; listed as TH-213
  tyrosinase activity / melanin made from L-DOPA by cell extracts: absence of tyrosinase activity
Tyrosinase [27]; human melanocyte extracts, 200 μM, 9 days, control approximately 7.25 RDU
  tyrosinase abundance (relative densitometric units): ~3.75 RDU
Tyrosinase [27]; human melanocytes treated with 200 micromolar for 9 days
  tyrosinase present (western immunoblot): almost no detectable tyrosinase
